Results published in BindingDB's records for doi:10.1021/acs.jmedchem.0c00870 (Tu Dortmund University, 2020).

Columns and labels:
[1] = Inhibiton of EGFR L858R/T790M mutant (unknown origin) expressed in human NCI-H1975 cells assessed as reduction in EGFR induced cell viability after 96 hrs by CellTiter-Glo assay
[2] = Inhibiton of EGFR (unknown origin) expressed in human A431 cells assessed as reduction in EGFR induced cell viability after 96 hrs by CellTiter-Glo assay

SMILES	IC50 [1] [nM]	IC50 [2] [nM]
C=CC(=O)Nc1cccc(-c2c[nH]c3ncnc(Nc4ccc(OCc5ccccn5)c(Cl)c4)c23)c1	739	1680
C=CC(=O)Nc1cccc(-c2c[nH]c3ncnc(Nc4ccc(CN5C(=O)c6ccccc6C5=O)cc4)c23)c1	2660	1570
C=CC(=O)Nc1cc(-c2c[nH]c3ncnc(Nc4ccc(OCc5ccccn5)c(Cl)c4)c23)ccc1OCCN(C)C	807	862
C=CC(=O)Nc1cc(-c2c[nH]c3ncnc(Nc4ccc5c(cnn5Cc5ccccc5)c4)c23)ccc1OCCO	–	2240
